Key:
[1] = target: T1, rodent sweet taste receptor (Rattus norvegicus, UniProt Q923K1); assay: Calcium response, rodent sweet taste receptor; format: cell-based
T1 construct: expressed in transfected cells; host or cells: HEK293T cells stably expressing G16Gust44
Description: (§1) In order to elucidate the putative binding site for NHDC, we cotransfected mixtures of plasmid DNAs for the rat and human TAS1R2 and TAS1R3 receptor subunits in HEK293T cells stably expressing the chimeric G-protein G16Gust44 and measured cellular calcium responses by fluorometry following bath application of various sweet tasting compounds.
(§2) Figure 1 Chemical structure and calcium responses elicited by neohesperidin dihydrochalcone. (A) Structure of neohesperidin dihydrochalcone. Numbers denote carbon atom positions. […]
(§3) The cDNAs for TAS1Rs tagged at the C-terminus with the herpes simplex virus glycoprotein D (HSV) were transiently transfected into HEK293T cells stably expressing the chimeric G-protein subunit G16Gust44 [44] using Lipofectamine 2000 (Invitrogen, Carlsbad, CA) according to the manufacturer's protocol. […] We monitored calcium mobilization following receptor stimulation with sweet tastants by an automated fluorometric imaging plate reader (FLIPR, Molecular Devices, Sunnyvale, CA). […] The obtained calcium signals were corrected for the response of mock transfected cells and normalized to the fluorescence of cells prior to the application of the stimulus using ΔF/F = (F-F0)/F0. Concentration-response curves and EC50 and IC50 values were calculated in SigmaPlot by nonlinear regression using the function f = ((a-d)/(1+(x/EC50)^nH)+d) and f = (a-b)/[1+(x/IC50)^nH]+b, respectively.

[2] = target: T2, rat Tas1r3 and human TAS1R2 (opposite combination) (Rattus norvegicus, UniProt Q923K1); assay: Calcium response, opposite interspecies subunit combination; format: cell-based; settings: 1 mM NHDC
T2 construct: expressed in transfected cells; host or cells: HEK293T cells stably expressing G16Gust44
Description: as §1, §2, §3

[3] = target: T3, human TAS1R3 and rat Tas1r2 (Homo sapiens, UniProt Q7RTX0); assay: Calcium response, interspecies subunit combination; format: cell-based; settings: 1 mM NHDC
T3 construct: expressed in transfected cells; host or cells: HEK293T cells stably expressing G16Gust44
Description: as §1, §2, §3

[4] = target: T4, hTAS1R2 + hTAS1R3 L782A^6.55 (Homo sapiens, UniProt Q7RTX0+Q8TE23, L782A); parameters: method as in PMID 15668251; settings: mutation L782A^6.55; cited from earlier work
T4 construct: expressed in transfected cells; host or cells: HEK293T cells stably expressing G16Gust44
T4 sequence (Q8TE23 20-839): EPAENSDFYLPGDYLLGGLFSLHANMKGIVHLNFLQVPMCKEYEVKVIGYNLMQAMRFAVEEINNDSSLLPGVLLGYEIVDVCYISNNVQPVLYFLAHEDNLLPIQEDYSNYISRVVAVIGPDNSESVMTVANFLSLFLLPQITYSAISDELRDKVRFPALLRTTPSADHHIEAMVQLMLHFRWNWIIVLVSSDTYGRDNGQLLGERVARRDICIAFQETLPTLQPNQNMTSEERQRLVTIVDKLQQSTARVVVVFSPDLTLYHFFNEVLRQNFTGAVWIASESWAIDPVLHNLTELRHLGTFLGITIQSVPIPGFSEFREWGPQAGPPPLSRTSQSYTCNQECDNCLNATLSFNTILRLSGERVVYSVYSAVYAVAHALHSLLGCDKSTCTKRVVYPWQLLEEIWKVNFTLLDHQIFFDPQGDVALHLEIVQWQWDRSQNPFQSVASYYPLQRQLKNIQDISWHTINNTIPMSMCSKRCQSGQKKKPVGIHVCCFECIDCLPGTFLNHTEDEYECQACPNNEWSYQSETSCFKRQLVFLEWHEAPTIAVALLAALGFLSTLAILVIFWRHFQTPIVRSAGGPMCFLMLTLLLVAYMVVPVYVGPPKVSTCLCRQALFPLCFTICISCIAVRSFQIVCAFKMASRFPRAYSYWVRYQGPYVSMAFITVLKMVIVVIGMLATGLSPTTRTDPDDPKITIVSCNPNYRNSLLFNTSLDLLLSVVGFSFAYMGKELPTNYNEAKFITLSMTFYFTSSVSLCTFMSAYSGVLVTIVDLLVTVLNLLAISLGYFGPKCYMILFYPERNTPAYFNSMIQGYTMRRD
T4 sequence (Q7RTX0 21-852 L782A): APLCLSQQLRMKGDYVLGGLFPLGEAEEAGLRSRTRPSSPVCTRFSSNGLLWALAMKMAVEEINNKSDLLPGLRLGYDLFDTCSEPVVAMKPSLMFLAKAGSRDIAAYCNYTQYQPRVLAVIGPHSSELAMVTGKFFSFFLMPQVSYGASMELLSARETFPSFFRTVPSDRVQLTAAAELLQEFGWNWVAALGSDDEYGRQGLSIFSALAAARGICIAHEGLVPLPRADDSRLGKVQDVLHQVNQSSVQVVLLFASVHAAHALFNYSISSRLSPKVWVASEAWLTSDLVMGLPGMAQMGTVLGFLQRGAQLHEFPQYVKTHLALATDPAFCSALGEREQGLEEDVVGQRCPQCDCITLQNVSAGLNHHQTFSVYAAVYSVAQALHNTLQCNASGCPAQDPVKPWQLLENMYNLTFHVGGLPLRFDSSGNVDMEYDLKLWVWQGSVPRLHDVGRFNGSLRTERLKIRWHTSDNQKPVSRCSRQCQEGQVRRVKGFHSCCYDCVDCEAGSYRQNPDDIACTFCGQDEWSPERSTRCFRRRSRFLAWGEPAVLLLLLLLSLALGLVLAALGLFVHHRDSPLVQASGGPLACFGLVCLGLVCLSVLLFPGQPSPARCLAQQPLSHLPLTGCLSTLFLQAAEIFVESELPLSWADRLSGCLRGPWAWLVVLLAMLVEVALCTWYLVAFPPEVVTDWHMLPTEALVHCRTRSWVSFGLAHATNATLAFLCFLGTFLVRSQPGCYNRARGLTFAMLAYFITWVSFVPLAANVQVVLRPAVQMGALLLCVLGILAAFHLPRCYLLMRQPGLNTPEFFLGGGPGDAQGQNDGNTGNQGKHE

T3 sequence (Q7RTX0 21-852): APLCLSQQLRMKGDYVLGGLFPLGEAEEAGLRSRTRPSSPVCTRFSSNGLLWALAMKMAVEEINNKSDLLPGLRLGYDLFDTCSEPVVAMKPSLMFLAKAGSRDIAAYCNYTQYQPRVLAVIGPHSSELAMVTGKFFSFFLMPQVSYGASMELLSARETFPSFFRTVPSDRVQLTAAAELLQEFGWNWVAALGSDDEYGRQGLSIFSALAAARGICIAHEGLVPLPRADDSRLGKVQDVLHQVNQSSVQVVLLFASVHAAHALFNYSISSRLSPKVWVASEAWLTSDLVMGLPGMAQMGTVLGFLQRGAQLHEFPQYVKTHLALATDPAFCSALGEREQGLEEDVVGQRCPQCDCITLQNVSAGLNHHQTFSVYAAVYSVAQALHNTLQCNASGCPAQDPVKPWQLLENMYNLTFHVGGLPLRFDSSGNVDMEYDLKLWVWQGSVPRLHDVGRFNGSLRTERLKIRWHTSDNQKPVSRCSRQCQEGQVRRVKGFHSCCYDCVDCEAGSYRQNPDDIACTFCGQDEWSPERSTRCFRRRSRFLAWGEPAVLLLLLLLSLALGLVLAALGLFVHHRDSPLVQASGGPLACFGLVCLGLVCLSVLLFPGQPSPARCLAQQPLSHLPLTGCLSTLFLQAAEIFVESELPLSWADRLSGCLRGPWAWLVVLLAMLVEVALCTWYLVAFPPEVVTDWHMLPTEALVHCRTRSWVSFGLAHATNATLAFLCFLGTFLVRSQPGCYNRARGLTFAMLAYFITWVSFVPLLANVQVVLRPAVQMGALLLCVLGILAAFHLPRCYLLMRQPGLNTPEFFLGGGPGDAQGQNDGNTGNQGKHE
T3 sequence (Q9Z0R7 20-843 partner): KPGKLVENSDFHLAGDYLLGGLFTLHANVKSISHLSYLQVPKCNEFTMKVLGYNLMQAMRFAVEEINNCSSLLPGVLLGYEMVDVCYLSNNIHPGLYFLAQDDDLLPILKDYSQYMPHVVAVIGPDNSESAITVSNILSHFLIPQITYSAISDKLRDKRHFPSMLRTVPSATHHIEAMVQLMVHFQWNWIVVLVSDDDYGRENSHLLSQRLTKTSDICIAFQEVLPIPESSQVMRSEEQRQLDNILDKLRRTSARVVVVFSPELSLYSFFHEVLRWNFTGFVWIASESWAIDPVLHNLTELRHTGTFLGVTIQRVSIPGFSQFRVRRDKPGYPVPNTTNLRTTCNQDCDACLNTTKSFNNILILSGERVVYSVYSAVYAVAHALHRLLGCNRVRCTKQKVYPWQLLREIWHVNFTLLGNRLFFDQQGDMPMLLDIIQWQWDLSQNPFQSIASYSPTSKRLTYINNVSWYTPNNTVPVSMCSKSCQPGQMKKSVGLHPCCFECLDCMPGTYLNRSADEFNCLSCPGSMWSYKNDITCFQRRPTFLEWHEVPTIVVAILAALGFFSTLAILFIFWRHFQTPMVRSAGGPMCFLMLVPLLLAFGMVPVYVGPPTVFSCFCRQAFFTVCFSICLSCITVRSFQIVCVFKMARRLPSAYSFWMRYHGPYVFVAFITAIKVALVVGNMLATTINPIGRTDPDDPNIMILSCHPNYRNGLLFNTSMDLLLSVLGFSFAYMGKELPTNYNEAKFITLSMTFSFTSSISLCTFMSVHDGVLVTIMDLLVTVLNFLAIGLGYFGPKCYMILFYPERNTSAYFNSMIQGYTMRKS
T2 sequence (Q923K1 21-858, one chain of several): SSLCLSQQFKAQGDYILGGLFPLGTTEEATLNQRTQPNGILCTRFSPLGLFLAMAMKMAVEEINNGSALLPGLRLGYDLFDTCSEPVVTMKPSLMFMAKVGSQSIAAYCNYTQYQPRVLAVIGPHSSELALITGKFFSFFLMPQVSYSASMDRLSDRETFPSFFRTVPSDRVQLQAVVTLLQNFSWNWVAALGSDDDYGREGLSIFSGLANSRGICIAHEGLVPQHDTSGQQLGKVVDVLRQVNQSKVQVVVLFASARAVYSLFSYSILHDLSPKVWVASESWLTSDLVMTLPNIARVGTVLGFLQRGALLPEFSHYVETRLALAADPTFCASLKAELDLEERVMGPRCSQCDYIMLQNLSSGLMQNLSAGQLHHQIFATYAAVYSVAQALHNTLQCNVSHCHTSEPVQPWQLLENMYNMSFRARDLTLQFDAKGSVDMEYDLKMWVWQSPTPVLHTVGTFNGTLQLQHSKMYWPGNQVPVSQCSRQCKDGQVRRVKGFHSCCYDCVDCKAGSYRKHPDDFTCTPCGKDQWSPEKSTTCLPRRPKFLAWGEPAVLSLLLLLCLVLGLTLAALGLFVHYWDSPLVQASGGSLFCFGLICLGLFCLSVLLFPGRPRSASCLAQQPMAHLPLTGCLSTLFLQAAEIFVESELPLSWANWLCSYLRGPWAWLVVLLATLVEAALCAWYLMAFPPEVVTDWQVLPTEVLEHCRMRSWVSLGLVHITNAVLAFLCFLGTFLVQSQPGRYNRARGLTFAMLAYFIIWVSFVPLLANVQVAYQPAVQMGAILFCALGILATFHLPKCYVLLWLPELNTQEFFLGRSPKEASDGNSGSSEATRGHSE
T1 sequence (Q923K1 21-858): as the sequence (Q923K1 21-858, one chain of several) above
T1 sequence (Q9Z0R7 20-843 partner): as the sequence (Q9Z0R7 20-843 partner) above

Structure (SMILES)	receptor activation [1]	calcium response [2]	calcium response [3]	receptor activation [4]
COc1ccc(CCC(=O)c2c(O)cc(O[C@@H]3O[C@H](CO)[C@@H](O)[C@H](O)[C@H]3O[C@@H]3O[C@@H](C)[C@H](O)[C@@H](O)[C@H]3O)cc2O)cc1O [NHDC, neohesperidin dihydrochalcone]	not the rodent sweet taste receptor	did not	elicited calcium responses	–
O=S(=O)(O)NC1CCCCC1 [cyclamate]	–	–	–	abolished activation
